Measured values reported in ChEMBL document CHEMBL4842370, “Discovery of 1-(phenylsulfonyl)-1H-indole-based multifunctional ligands targeting cholinesterases and 5-HT6 receptor with anti-aggregation properties against amyloid-beta and tau” (Eur J Med Chem, 2021).
Activity calls are given as the source filed them. The rule behind the calls is not given here.

Legend:
[1] = target: T1, 5-hydroxytryptamine receptor 6 (Homo sapiens, UniProt P50406); assay: Displacement of [3H]-LSD from human 5HT6R expressed in CHO-K1 cell membranes incubated for 1 hr by scintillation counter method; parameters: species or system Membrane
T1 sequence (P50406 whole entry): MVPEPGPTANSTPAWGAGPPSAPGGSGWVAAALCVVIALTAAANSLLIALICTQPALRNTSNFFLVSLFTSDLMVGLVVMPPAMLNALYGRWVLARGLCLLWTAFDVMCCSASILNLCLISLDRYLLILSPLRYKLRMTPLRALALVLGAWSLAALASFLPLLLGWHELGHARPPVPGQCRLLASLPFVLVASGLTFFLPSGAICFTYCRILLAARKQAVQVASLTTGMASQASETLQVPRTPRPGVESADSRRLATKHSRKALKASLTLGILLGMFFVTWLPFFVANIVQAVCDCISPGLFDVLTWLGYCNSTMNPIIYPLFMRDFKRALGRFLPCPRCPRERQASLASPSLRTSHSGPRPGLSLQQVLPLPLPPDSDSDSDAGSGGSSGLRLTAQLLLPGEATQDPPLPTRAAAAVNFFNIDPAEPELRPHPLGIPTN

[2] = target: T1, 5-hydroxytryptamine receptor 6; assay: Antagonist activity at human 5HT6R expressed in 1321N1 cells assessed as inhibition of […] cAMP production measured after 30 mins by TR-FRET assay; assay type: functional, cell-based; settings: filed as antagonist
Acetylcholinesterase = Acetylcholinesterase (Electrophorus electricus, UniProt O42275); assay: Inhibition of electric eel AChE using acetylthiocholine iodide as substrate incubated for 5 mins followed by substrate addition and measured after 5 mins by spectrophotometric based Ellman's method
Acetylcholinesterase, sequence (O42275 whole entry): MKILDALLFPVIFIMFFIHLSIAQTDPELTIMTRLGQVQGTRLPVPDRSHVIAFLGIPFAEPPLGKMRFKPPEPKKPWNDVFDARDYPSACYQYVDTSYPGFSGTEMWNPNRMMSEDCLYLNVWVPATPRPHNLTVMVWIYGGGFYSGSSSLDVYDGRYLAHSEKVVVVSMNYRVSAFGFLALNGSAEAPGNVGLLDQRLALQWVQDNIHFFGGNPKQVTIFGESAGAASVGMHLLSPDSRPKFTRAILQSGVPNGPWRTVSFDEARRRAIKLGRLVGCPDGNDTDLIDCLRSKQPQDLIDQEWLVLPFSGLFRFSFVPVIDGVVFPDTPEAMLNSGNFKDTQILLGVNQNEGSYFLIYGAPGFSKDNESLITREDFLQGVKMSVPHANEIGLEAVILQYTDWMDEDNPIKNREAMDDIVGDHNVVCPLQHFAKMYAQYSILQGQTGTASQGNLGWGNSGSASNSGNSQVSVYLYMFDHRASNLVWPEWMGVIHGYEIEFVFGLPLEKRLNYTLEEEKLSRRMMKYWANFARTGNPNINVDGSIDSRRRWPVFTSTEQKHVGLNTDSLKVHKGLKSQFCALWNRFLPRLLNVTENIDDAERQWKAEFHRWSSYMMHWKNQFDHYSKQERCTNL

[3] = target: T2, Amyloid-beta precursor protein (Homo sapiens, UniProt P05067); assay: Inhibition of HFIP-pretreated human recombinant amyloid beta (1 to 42) self aggregation at 10 uM incubated up to 48 hrs under shaking condition and measured every 3 min by Thioflavin T based fluorescence assay relative to control
T2 sequence (P05067 whole entry): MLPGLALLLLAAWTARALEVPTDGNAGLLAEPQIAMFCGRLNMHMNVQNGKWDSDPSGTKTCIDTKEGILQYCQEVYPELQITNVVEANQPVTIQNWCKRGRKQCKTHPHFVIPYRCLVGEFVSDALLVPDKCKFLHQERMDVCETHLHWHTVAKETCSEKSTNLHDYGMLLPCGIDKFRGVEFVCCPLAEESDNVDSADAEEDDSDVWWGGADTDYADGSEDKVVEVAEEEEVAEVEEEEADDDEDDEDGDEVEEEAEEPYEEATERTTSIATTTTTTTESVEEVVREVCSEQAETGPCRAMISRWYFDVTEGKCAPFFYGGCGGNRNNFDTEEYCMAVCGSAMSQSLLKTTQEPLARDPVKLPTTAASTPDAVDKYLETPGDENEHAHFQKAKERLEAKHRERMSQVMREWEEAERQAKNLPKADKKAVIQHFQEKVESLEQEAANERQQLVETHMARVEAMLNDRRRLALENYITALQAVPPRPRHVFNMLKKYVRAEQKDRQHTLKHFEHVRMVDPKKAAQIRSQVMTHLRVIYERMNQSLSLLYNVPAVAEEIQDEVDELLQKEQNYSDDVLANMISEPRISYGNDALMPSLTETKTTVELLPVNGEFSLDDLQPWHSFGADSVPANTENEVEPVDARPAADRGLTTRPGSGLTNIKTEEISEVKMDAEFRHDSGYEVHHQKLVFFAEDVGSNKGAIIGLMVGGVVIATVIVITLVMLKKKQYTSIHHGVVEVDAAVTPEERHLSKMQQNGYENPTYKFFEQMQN

Cholinesterase = Cholinesterase (Equus caballus, UniProt P81908)
Cholinesterase, sequence (P81908 whole entry): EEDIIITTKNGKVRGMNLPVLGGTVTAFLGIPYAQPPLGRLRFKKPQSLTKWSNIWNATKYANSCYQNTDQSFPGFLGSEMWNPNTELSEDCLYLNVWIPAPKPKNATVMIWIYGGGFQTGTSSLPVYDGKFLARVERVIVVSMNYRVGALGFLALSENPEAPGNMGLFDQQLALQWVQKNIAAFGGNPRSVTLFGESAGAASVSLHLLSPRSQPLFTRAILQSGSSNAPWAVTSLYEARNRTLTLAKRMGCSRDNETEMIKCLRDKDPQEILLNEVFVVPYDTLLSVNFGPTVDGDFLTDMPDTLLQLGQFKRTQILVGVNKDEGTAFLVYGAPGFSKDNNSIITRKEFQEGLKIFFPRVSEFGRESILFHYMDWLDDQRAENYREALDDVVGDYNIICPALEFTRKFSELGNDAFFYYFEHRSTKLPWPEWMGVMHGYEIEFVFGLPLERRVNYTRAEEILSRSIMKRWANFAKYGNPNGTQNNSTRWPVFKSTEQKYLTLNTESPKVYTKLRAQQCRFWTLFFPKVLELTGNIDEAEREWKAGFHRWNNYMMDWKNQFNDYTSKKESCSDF
Description: Inhibition of equine serum BuChE using butyrylthiocholine as substrate incubated for 5 mins followed by substrate addition and measured after 5 mins by spectrophotometric based Ellman's method

[4] = target: T2, Amyloid-beta precursor protein; assay: Inhibition of amyloid beta (1 to 42) (unknown origin) aggregation expressed in Escherichia coli BL21 (DE3) at 10 uM incubated for 24 hrs by microplate reader assay relative to control
Homo sapiens = organism: Homo sapiens; assay: Inhibition of tau protein (unknown origin) expressed in Escherichia coli BL21 (DE3) at 10 uM incubated for 24 hrs by microplate reader assay relative to control
[5] = target: T2, Amyloid-beta precursor protein; assay: Inhibition of HFIP-pretreated human recombinant amyloid beta (1 to 42) self aggregation incubated up to 48 hrs under shaking condition and measured every 3 min by Thioflavin T based fluorescence assay
Cytochrome P450 3A4 = Cytochrome P450 3A4 (Homo sapiens, UniProt P08684); assay: Inhibition of CYP3A4 (unknown origin) at <=10 uM; assay type: ADME
Cytochrome P450 3A4, sequence (P08684 whole entry): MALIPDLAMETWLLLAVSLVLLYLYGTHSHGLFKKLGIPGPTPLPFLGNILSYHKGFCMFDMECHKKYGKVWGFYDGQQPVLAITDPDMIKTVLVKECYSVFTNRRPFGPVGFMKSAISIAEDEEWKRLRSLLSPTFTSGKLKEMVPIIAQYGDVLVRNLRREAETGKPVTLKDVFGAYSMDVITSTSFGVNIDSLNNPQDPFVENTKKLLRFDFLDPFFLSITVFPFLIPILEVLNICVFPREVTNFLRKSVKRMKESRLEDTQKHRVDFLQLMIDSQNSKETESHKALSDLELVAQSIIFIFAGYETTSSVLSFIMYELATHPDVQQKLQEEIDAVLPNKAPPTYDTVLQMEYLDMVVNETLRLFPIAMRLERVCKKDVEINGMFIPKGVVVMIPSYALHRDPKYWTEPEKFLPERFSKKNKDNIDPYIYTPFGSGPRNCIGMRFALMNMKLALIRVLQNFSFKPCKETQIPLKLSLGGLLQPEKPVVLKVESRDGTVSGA

Cytochrome P450 2D6 = Cytochrome P450 2D6 (Homo sapiens, UniProt P10635); assay: Inhibition of CYP2D6 (unknown origin) at <=10 uM; assay type: ADME
Cytochrome P450 2D6, sequence (P10635 whole entry): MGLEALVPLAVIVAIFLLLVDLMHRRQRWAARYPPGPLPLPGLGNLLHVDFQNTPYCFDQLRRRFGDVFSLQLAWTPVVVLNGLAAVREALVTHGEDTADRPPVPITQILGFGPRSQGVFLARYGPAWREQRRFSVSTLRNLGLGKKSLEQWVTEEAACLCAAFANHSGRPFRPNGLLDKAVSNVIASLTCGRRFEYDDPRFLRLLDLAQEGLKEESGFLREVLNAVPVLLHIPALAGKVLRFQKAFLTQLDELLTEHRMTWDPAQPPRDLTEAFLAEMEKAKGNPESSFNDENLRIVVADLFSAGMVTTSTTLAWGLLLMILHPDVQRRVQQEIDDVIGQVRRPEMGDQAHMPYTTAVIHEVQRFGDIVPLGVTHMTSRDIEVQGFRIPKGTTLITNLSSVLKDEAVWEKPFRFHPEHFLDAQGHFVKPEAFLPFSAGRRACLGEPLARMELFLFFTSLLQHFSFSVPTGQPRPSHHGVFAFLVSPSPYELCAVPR

HepG2 = assay: Cytotoxicity against human HepG2 cells assessed as cell reduction in cell viability incubated for 48 hrs by MTS assay; assay type: cell-based; settings: HepG2, 48 h
in vitro [6] = settings: mouse, liver microsomes
in vitro [7] = settings: PAMPA
Description: Permeability coefficient of the compound in PBS buffer incubated for 5 hrs by PAMPA-based LC-MS analysis

For `O=S(=O)(c1ccccc1)n1ccc2c(OCCNCCCCNc3c4c(nc5ccccc35)CCCC4)cccc21`, the Ki [1] was 0.0035 µM, the Kb [2] was 0.01 µM and the IC50 (Acetylcholinesterase; read-out: IC50) was 0.0575 µM. For the same compound, the inhibition [3] was 77.4% and the IC50 (Cholinesterase) was 0.00939 µM.

In the case of `O=S(=O)(c1ccccc1)n1ccc2c(OCCNCCNCc3cccc(C(F)(F)F)c3)cccc21`, the Ki [1] is reported as 0.0017 µM, the Kb [2] is reported as 0.007 µM and the IC50 (Acetylcholinesterase) is reported as “Not Active”. For the same compound, the inhibition [3] was “inactive”, the inhibition [4] was 37.1% and the inhibition (Homo sapiens) was 79.4%. The IC50 (Cholinesterase) was 2.12 µM.

Compound `O=S(=O)(c1ccccc1)n1ccc2c(OCCNCCNc3c4c(nc5ccccc35)CCCC4)cccc21` has a Ki [1] of 0.013 µM, an IC50 (Acetylcholinesterase; read-out: IC50) of 0.00842 µM and an inhibition [3] of 74.8%. The IC50 [5] was 1.1 µM, the “inhibition (INH)” value (Cytochrome P450 3A4) was “Not Active” and the “inhibition (INH)” value (Cytochrome P450 2D6) was “Not Active”. It also gave an IC50 (HepG2) of 79.6 µM, an IC50 (Cholinesterase) of 0.0244 µM and a metabolised at 2 h (in vitro [6]) of 72%.

Work on `O=S(=O)(c1ccccc1)n1ccc2c(OCCNCCCCCCNc3c4c(nc5ccccc35)CCCC4)cccc21` yielded a Ki [1] of 0.0086 µM, an IC50 (Acetylcholinesterase; read-out: IC50) of 0.0725 µM and an inhibition [3] of 69.2%. The IC50 (Cholinesterase) was 0.00407 µM.

With `O=S(=O)(c1ccccc1)n1ccc2c(OCCNCCCNCc3ccccc3)cccc21` the Ki [1] was 0.008 µM, the IC50 (Acetylcholinesterase) was “Not Active” and the inhibition [3] was 53.2%. The IC50 (Cholinesterase) was 0.701 µM.

With `O=S(=O)(c1ccccc1)n1ccc2c(OCCNCCNCc3ccccc3Cl)cccc21` the Ki [1] was 0.003 µM, the Kb [2] was 0.058 µM and the IC50 (Acetylcholinesterase; read-out: IC50) was 4.24 µM. It also gave an inhibition [3] of 57%, an inhibition [4] of 27.5% and an inhibition (Homo sapiens) of 53.5%. The IC50 (Cholinesterase) was 0.586 µM.

In the case of `O=[N+]([O-])c1ccc(CNCCNCCOc2cccc3c2ccn3S(=O)(=O)c2ccccc2)cc1`, the Ki [1] is reported as 0.002 µM, the IC50 (Acetylcholinesterase) is reported as “Not Active” and the inhibition [3] is reported as 57.7%. For the same compound, the inhibition [4] was 31.6%, the inhibition (Homo sapiens) was 62.3% and the IC50 (Cholinesterase) was 4.26 µM.

In the case of `CCN(C)C(=O)Oc1cccc(CNCCNCCOc2cccc3c2ccn3S(=O)(=O)c2ccccc2)c1`, the Ki [1] is reported as 0.015 µM, the Kb [2] is reported as 0.048 µM and the IC50 (Acetylcholinesterase) is reported as “Not Active”. The inhibition [3] was 68.1%, the IC50 [5] was 1.38 µM and the inhibition [4] was 77.5%. The inhibition (Homo sapiens) was 68.7%, the “inhibition (INH)” value (Cytochrome P450 3A4) was “Not Active” and the “inhibition (INH)” value (Cytochrome P450 2D6) was “Not Active”. It also gave an IC50 (HepG2) of 21.1 µM, an IC50 (Cholinesterase) of 0.454 µM and a Papp at 5 h (in vitro [7]) of 1.27 ×10⁻⁶ cm/s. It also gave a metabolised at 2 h (in vitro [6]) of 40%.

For `O=S(=O)(c1ccccc1)n1ccc2c(OCCNCCCCCNCc3ccccc3)cccc21`, the Ki [1] was 0.012 µM, the IC50 (Acetylcholinesterase) was “Not Active” and the inhibition [3] was 62.5%. It also gave an inhibition [4] of 36.5%, an inhibition (Homo sapiens) of 51.7% and an IC50 (Cholinesterase) of 0.394 µM.

With `CCN(C)C(=O)Oc1cccc([C@H](C)N(C)C)c1` the inhibition [3] was 86.6%.

In the case of `O=S(=O)(c1ccccc1)n1ccc2c(OCCNCCNCc3ccc(Cl)cc3)cccc21`, the Ki [1] is reported as 0.001 µM, the IC50 (Acetylcholinesterase) is reported as “Not Active” and the inhibition [3] is reported as 60.6%. The inhibition [4] was 31.9%, the inhibition (Homo sapiens) was 58.2% and the IC50 (Cholinesterase) was 1.99 µM.

`O=S(=O)(c1ccccc1)n1ccc2c(OCCNCCCCCNc3c4c(nc5ccccc35)CCCC4)cccc21` showed a Ki [1] of 0.007 µM, an IC50 (Acetylcholinesterase; read-out: IC50) of 0.303 µM and an inhibition [3] of 73.2%. For the same compound, the IC50 (Cholinesterase) was 0.00217 µM.

`Cc1cccc(CNCCNCCOc2cccc3c2ccn3S(=O)(=O)c2ccccc2)c1` gave a Ki [1] of 0.002 µM, an IC50 (Acetylcholinesterase; read-out: IC50) of 4470 µM and an inhibition [3] of 57.4%. The inhibition [4] was 48.5%, the inhibition (Homo sapiens) was 58.8% and the IC50 (Cholinesterase) was 1.07 µM.

With `O=S(=O)(c1ccccc1)n1ccc2c(OCCNCCNCc3cc(Cl)cc(Cl)c3)cccc21` the Ki [1] was 0.011 µM, the IC50 (Acetylcholinesterase) was “Not Active” and the inhibition [3] was 57.2%. The inhibition [4] was 40.9%, the inhibition (Homo sapiens) was 62.3% and the IC50 (Cholinesterase) was 1.66 µM.

`O=S(=O)(c1ccccc1)n1ccc2c(OCCNCCNCc3cccc(Cl)c3)cccc21` gave a Ki [1] of 0.002 µM, an IC50 (Acetylcholinesterase; read-out: IC50) of 4.84 µM and an inhibition [3] of 64.3%. It also gave an inhibition [4] of 25.7%, an inhibition (Homo sapiens) of 57.5% and an IC50 (Cholinesterase) of 1.07 µM.

For `COc1ccc(CNCCNCCOc2cccc3c2ccn3S(=O)(=O)c2ccccc2)cc1`, the Ki [1] was 0.0035 µM, the IC50 (Acetylcholinesterase) was “Not Active” and the inhibition [3] was 63.8%. For the same compound, the inhibition [4] was 41.4%, the inhibition (Homo sapiens) was 64% and the IC50 (Cholinesterase) was 2.07 µM.

Work on `O=S(=O)(c1ccccc1)n1ccc2c(OCCNCCNCc3ccc(F)cc3)cccc21` yielded a Ki [1] of 0.0001 µM, an IC50 (Acetylcholinesterase; read-out: IC50) of 6210 µM and an inhibition [3] of 73.4%. For the same compound, the inhibition [4] was 23.7%, the inhibition (Homo sapiens) was 58% and the IC50 (Cholinesterase) was 1.3 µM.

Work on `O=S(=O)(c1ccccc1)n1ccc2c(OCCNCCCNc3c4c(nc5ccccc35)CCCC4)cccc21` yielded a Ki [1] of 0.01 µM, an IC50 (Acetylcholinesterase; read-out: IC50) of 0.0209 µM and an inhibition [3] of 61.1%. For the same compound, the IC50 (Cholinesterase) was 0.0188 µM.

In the case of `O=S(=O)(c1ccccc1)n1ccc2c(OCCNCCCCNCc3ccccc3)cccc21`, the Ki [1] is reported as 0.008 µM, the IC50 (Acetylcholinesterase) is reported as “Not Active” and the inhibition [3] is reported as 41.8%. The IC50 (Cholinesterase) was 0.887 µM.

Compound `O=S(=O)(c1ccccc1)n1ccc2c(OCCNCCNCc3ccccc3)cccc21` has a Ki [1] of 0.003 µM, a Kb [2] of 0.009 µM and an IC50 (Acetylcholinesterase; read-out: IC50) of 2.87 µM. It also gave an inhibition [3] of 55%, an inhibition [4] of 26.9% and an inhibition (Homo sapiens) of 58.1%. For the same compound, the IC50 (Cholinesterase) was 0.528 µM.
